Experimental data published in paper PMC8508980, “Design, Synthesis and Anticancer Profile of New 4-(1H-benzo[d]imidazol-1-yl)pyrimidin-2-amine-Linked Sulfonamide Derivatives with V600EBRAF Inhibitory Effect” (International Journal of Molecular Sciences, 2021).

How the values were obtained:
[1] = system: PC-3; experiment: NCI 60 cell line screen; format: cell-based, human; conditions: for activity at 10 µM: Homo sapiens, PC-3, Prostate Cancer, read-out: Percent growth
Outline: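 Human tumour lines were grown in RPMI 1640 with 5% FBS and 2 mM L-glutamine, then exposed 48 h at 37 °C to five concentrations (max 10 µM) after 24 h pre-incubation. Growth was measured by sulforhodamine B protein staining at 515 nm relative to time-zero and untreated controls.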

[2] = system: colon cancer cell lines; experiment: NCI 60 screen, sub-panel mean; format: cell-based, human; conditions: NCI-60, colon cancer sub-panel
Protocol: (§1) Anticancer profiling over a panel of 60 cancer cell lines was carried out at the National Cancer Institute (NCI), Bethesda, Maryland, USA, https://dtp.cancer.gov/discovery_development/nci-60/methodology.htm (Last visit 22 September 2021), using the standard procedure (detailed procedure is located in the Supplementary Information page 50 s).
(§2) NCI standard procedure for 60 cell lines assay
(§3) The human tumor cell lines of the cancer screening panel are grown in RPMI 1640 mediu m containing 5% fetal bovine serum and 2 mM L-glutamine. For a typical screening experiment, cells are inoculated into 96 well microtiter plates in 100 μL at plating densities ranging from 5,000 to 40,000 cells/well depending on the doubling time of individual cell lines. After cell inoculation, the microtiter plates are incubated at 37° C, 5 % CO2, 95 % air and 100 % relative humidity for 24 h prior to addition of experimental drugs.
(§4) After 24 h, two plates of each cell line are fixed in situ with TCA, to represent a measurement of the cell population for each cell line at the time of drug addition (Tz). Experimental drugs are solubilized in dimethyl sulfoxide at 400-fold the desired final maximum test concentration (10 µM) and stored frozen prior to use. At the time of drug addition, an aliquot of frozen concentrate is thawed and diluted to twice the desired final maximum test concentration with co mp lete medium containing 50 μg/ml gentamicin. Additional four, 10-fold or ½ log serial dilutions are made to provide a total of five drug concentrations plus control. Aliquots of 100 μl of these different drug dilutions are added to the appropriate microtiter wells already containing 100 μl of medium, resulting in the required final drug concentrations.
(§5) Following drug addition, the plates are incubated for an additional 48 h at 37°C, 5 % CO2, 95 % air, and 100 % relative humidity. For adherent cells, the assay is terminated by the addition of cold TCA. Cells are fixed in situ by the gentle addition of 50 μl of cold 50 % (w/v) TCA (final concentration, 10 % TCA) and incubated for 60 minutes at 4°C. The supernatant is discarded, and the plates are washed five times with tap water and air dried. Sulforhodamine B (SRB) solution (100 μl) at 0.4 % (w/v) in 1 % acetic acid is added to each well, and plates are incubated for 10 minutes at room temperature. After staining, unbound dye is removed by washing five times with 1 % acetic acid and the plates are air dried. Bound stain is subsequently solubilized with 10 mM trizma base, and the absorbance is read on an automated plate reader at a wavelength of 515 nm. For suspension cells, the methodology is the same except that the assay is terminated by fixing settled cells at the bottom of the wells by g ently adding 50 μl of 80 % TCA (final concentration, 16 % TCA). Using the seven absorbance measurements [time zero, (Tz), control growth, (C), and test growth in the presence of drug at the five concentration levels (Ti)], the percentage growth is calculated at each of the drug concentrations levels. Percentage growth inhibition is calculated as:
(§6) [(Ti-Tz)/(C-Tz)] x 100 for concentrations for which Ti>/=Tz
(§7) [(Ti-Tz)/Tz] x 100 for concentrations for which Ti<Tz.
(§8) Three dose response parameters are calculated for each experimental agent. Growth inhibition of […]
(§9) resulting in a 50% reduction in the net protein increase (as measured by SRB staining) in control cells during the drug incubation. The drug concentration resulting in total growth inhibition […]
(§10) (TGI) is calculated from Ti = Tz.

[3] = system: leukemia cell lines; experiment: NCI 60 screen, sub-panel mean; format: cell-based, human; conditions: NCI-60, leukemia sub-panel
Protocol: as §1, §2, §3, §4, §5, §6, §7, §8, §9, §10

[4] = system: ovarian cancer cell lines; experiment: NCI 60 screen, sub-panel mean; format: cell-based, human; conditions: NCI-60, ovarian cancer sub-panel
Protocol: as §1, §2, §3, §4, §5, §6, §7, §8, §9, §10

[5] = system: breast cancer cell lines; experiment: NCI 60 screen, sub-panel mean; format: cell-based, human; conditions: NCI-60, breast cancer sub-panel
Protocol: as §1, §2, §3, §4, §5, §6, §7, §8, §9, §10

[6] = system: non-small cell lung cancer cell lines; experiment: NCI 60 screen, sub-panel mean; format: cell-based, human; conditions: NCI-60, non-small cell lung cancer sub-panel
Protocol: as §1, §2, §3, §4, §5, §6, §7, §8, §9, §10

[7] = system: renal cancer cell lines; experiment: NCI 60 screen, sub-panel mean; format: cell-based, human; conditions: NCI-60, renal cancer sub-panel
Protocol: as §1, §2, §3, §4, §5, §6, §7, §8, §9, §10

[8] = system: prostate cancer cell lines; experiment: NCI 60 screen, sub-panel mean; format: cell-based, human; conditions: NCI-60, prostate cancer sub-panel
Protocol: as §1, §2, §3, §4, §5, §6, §7, §8, §9, §10

[9] = system: T-47D cells; experiment: MTT assay IC50 over T-47D; format: cell-based; conditions: Homo sapiens, T47D
Protocol: (§11) In the beginning, the IC50 of compound 12e over T-47D (American Type Culture Collection, US) was determined using MTT assay, and the same procedure was applied for A375 and SK-MEL-5. T-47D cells (10^5 cells) were treated with 12e (5 µM) and incubated for 48h. Cells were collected by trypsinization, washed two times with ice-cold PBS, and re-suspended in 60% cold ethanol and kept at 4 °C for 60 min. PBS was used to wash the fixed cells and was re-suspended in 1.0 mL of PBS containing 10µg/mL propidium iodide and 50 µg/mL RNAase A. Cells were incubated in the dark at 37 °C for 20min; then, DNA contents were analyzed using flow cytometric analysis using an FL2 (λex/em 535/617 nm) signal detector. For each sample, 12,000 events were acquired. The cell cycle distribution was obtained by using ACEA NovoExpress^TM software.

[10] = system: T-47D cells; experiment: Cell cycle analysis by flow cytometry (propidium iodide); format: cell-based; conditions: 5 µM
Protocol: The distribution of cell cycle was determined by flow cytometric assay after using propidium iodide to stain the DNA content of the treated cells. […] Meanwhile, the cells of the G2-phase decreased to 6% compared to 8% in the untreated cells.
as §11, with “T-47D cells (10^5 cells) were treated with 12e (5 µM) and incubated for 48h.” left out

[11] = system: CNS cancer cell lines; experiment: NCI 60 screen, sub-panel mean; format: cell-based, human; conditions: NCI-60, CNS sub-panel
Protocol: as §1, §2, §3, §4, §5, §6, §7, §8, §9, §10

[12] = system: melanoma cancer cell lines; experiment: NCI 60 screen, sub-panel mean; format: cell-based, human; conditions: NCI-60, melanoma sub-panel
Protocol: as §1, §2, §3, §4, §5, §6, §7, §8, §9, §10

[13] = system: NCI 60 cancer cell lines; experiment: NCI 60 cell line screen, mean over panel; format: cell-based, human
Protocol: as §1, §2
The human tumor cell lines of the cancer screening panel are grown in RPMI 1640 mediu m containing 5% fetal bovine serum and 2 mM L-glutamine. […]
Following drug addition, the plates are incubated for an additional 48 h at 37°C, 5 % CO2, 95 % air, and 100 % relative humidity. […] Bound stain is subsequently solubilized with 10 mM trizma base, and the absorbance is read on an automated plate reader at a wavelength of 515 nm. […] Using the seven absorbance measurements [time zero, (Tz), control growth, (C), and test growth in the presence of drug at the five concentration levels (Ti)], the percentage growth is calculated at each of the drug concentrations levels. Percentage growth inhibition is calculated as: […]
Three dose response parameters are calculated for each experimental agent. […]
resulting in a 50% reduction in the net protein increase (as measured by SRB staining) in control cells during the drug incubation. […]
as §10

Structure (SMILES): O=S(=O)(NCCCNc1nccc(-n2cnc3ccccc32)n1)c1ccc(Br)cc1 [12k, N-(3-((4-(1H-benzo [d]imidazol-1-yl)pyrimidin-2-yl)amino)propyl)-4-bromo benzenesulfonamide]
- activity at 10 µM [1]: 84.7%

Structure (SMILES): COc1ccc(S(=O)(=O)NCCCNc2nccc(-n3cnc4ccccc43)n2)cc1 [12m, N-(3-((4-(1H-benzo [d]imidazol-1-yl)pyrimidin-2-yl)amino)propyl)-4-methoxy benzenesulfonamide]
- activity at 10 µM [1]: 89.7%

Structure (SMILES): O=S(=O)(NCCNc1nccc(-n2cnc3ccccc32)n1)c1ccc(Br)cc1 [12d, N-(2-((4-(1H-benzo [d]imidazol-1-yl)pyrimidin-2-yl)amino)ethyl)-4-bromobenzenesulfonamide]
- activity at 10 µM [1]: 93.8%

Structure (SMILES): COc1ccc(S(=O)(=O)NCCNc2nccc(-n3cnc4ccccc43)n2)cc1 [12f, N-(2-((4-(1H-benzo [d]imidazol-1-yl)pyrimidin-2-yl)amino)ethyl)-4-methoxy benzenesulfonamide]
- activity at 10 µM [1]: 97.5%

Structure (SMILES): O=S(=O)(NCCCNc1nccc(-n2cnc3ccccc32)n1)c1ccc(Cl)cc1 [12j, N-(3-((4-(1H-benzo [d]imidazol-1-yl)pyrimidin-2-yl)amino)propyl)-4-chloro benzenesulfonamide]
- activity at 10 µM [1]: 92.5%

Structure (SMILES): O=S(=O)(NCCNc1nccc(-n2cnc3ccccc32)n1)c1ccc(F)cc1 [12b, N-(2-((4-(1H-benzo [d]imidazol-1-yl)pyrimidin-2-yl)amino)ethyl)-4-fluorobenzenesulfonamide]
- activity at 10 µM [1]: 91.3%

Structure (SMILES): O=S(=O)(NCCNc1nccc(-n2cnc3ccccc32)n1)c1ccccc1 [12a, N-(2-((4-(1H-benzo [d]imidazol-1-yl)pyrimidin-2-yl)amino)ethyl)benzenesulfonamide]
- activity at 10 µM [1]: 93.5%

Structure (SMILES): O=S(=O)(NCCCNc1nccc(-n2cnc3ccccc32)n1)c1ccc(C(F)(F)F)cc1 [12l, N-(3-((4-(1H-benzo [d]imidazol-1-yl)pyrimidin-2-yl)amino)propyl)-4-(trifluoromethyl) benzenesulfonamide]
- activity at 10 µM [1]: 59%
- mean percent inhibition [2]: 30%
- mean percent inhibition [3]: 46%
- mean percent inhibition [4]: around 25%
- mean percent inhibition [5]: around 40%
- mean percent inhibition [6]: 30%
- mean percent inhibition [7]: around 30%
- mean percent inhibition [8]: around 20%

Structure (SMILES): Cc1ccc(S(=O)(=O)NCCNc2nccc(-n3cnc4ccccc43)n2)cc1 [12g, N-(2-((4-(1H-benzo [d]imidazol-1-yl)pyrimidin-2-yl)amino)ethyl)-4-methyl benzenesulfonamide]
- activity at 10 µM [1]: 76.1%
- mean percent inhibition [4]: around 25%
- mean percent inhibition [5]: around 40%
- mean percent inhibition [6]: 30%
- mean percent inhibition [7]: around 30%
- mean percent inhibition [8]: around 20%

Structure (SMILES): O=S(=O)(NCCNc1nccc(-n2cnc3ccccc32)n1)c1ccc(C(F)(F)F)cc1 [12e, N-(2-((4-(1H-benzo [d]imidazol-1-yl)pyrimidin-2-yl)amino)ethyl)-4-(trifluoromethyl)benzenesulfonamide]
- activity at 10 µM [1]: 45.5%
- percent inhibition ([1]; PC-3, NCI-60 heat map analysis): 55%
- IC50 [9]: 5.35 µM
- cells in S-phase, treated cells ([10]; control 14%): 18%
- cells in G1 phase, treated cells ([10]; control 29%): 31%
- cells in G2-phase, treated cells ([10]; untreated 8%): 6%
- mean percent inhibition [2]: 40%
- mean percent inhibition [11]: 50%
- mean percent inhibition [3]: 60%
- mean percent inhibition [4]: 40%
- mean percent inhibition [5]: more than 60%
- mean percent inhibition [6]: 50%
- mean percent inhibition [7]: 45%
- mean percent inhibition [8]: 40%
- mean percent inhibition [12]: 50%
- mean percent inhibition over 60-cell line panel [13]: around 50%

Structure (SMILES): O=S(=O)(NCCCNc1nccc(-n2cnc3ccccc32)n1)c1cccc2ccccc12 [12n, N-(3-((4-(1H-benzo [d]imidazol-1-yl)pyrimidin-2-yl)amino)propyl)naphthalene-1-sulfonamide]
- activity at 10 µM [1]: 66.7%
- mean percent inhibition [8]: around 20%

Structure (SMILES): O=S(=O)(NCCNc1nccc(-n2cnc3ccccc32)n1)c1ccc(Cl)cc1 [12c, N-(2-((4-(1H-benzo [d]imidazol-1-yl)pyrimidin-2-yl)amino)ethyl)-4-chlorobenzenesulfonamide]
- activity at 10 µM [1]: 103%

Structure (SMILES): O=S(=O)(NCCCNc1nccc(-n2cnc3ccccc32)n1)c1ccc(F)cc1 [12i, N-(3-((4-(1H-benzo [d]imidazol-1-yl)pyrimidin-2-yl)amino)propyl)-4-fluorobenzenesulfonamide]
- activity at 10 µM [1]: 69.3%
- mean percent inhibition [3]: 50%
- mean percent inhibition [4]: around 25%
- mean percent inhibition [5]: around 40%
- mean percent inhibition [8]: around 20%

Structure (SMILES): O=S(=O)(NCCCNc1nccc(-n2cnc3ccccc32)n1)c1ccccc1 [12h, N-(3-((4-(1H-benzo [d]imidazol-1-yl)pyrimidin-2-yl)amino)propyl)benzenesulfonamide]
- activity at 10 µM [1]: 89.2%
